Patent US10766929B2, “De novo designed hemagglutinin binding proteins” (UNIVERSITY OF WASHINGTON, priority 2017, dated 2020)
≈ marks a conversion by molar mass, not a printed value. Positions of bridges follow the written chain, without caps; N, C: chain ends. Residues, ends and D or L forms follow the SMILES beside them. No end group written: not given here.

Key:
biotinylated HA proteins = type: physicochemical, influenza
PR8 influenza virus = type: cell-based, influenza virus (Madin-Darby Canine Kidney Epithelial Cells)
CA09 influenza virus = type: cell-based, influenza virus (Madin-Darby Canine Kidney Epithelial Cells)
[1] = test system: A/California/04/09 (H1N1) (CA09); set-up: species or system BALB/c mice; details: mouse, in vivo
[2] = test system: H1N1 (CA09) influenza virus; set-up: species or system Ferrets; details: in vivo
[3] = test system: flu virus strains Ca0409 and Ft. Monmout; details: both strains

CC[C@H](C)[C@@H]1NC(=O)[C@H](CCC(=O)O)NC(=O)[C@H](C)NC(=O)[C@H](C)NC(=O)[C@H]([C@@H](C)O)NC(=O)[C@H](CCC(N)=O)NC(=O)[C@H](C)NC(=O)[C@H](C)NC(=O)[C@H](Cc2ccccc2)NC(=O)[C@H](CC(C)C)NC(=O)[C@H]([C@@H](C)O)NC(=O)[C@H]([C@@H](C)O)NC(=O)[C@H](Cc2ccccc2)NC(=O)[C@H](CO)NC(=O)[C@H](CCC(N)=O)NC(=O)[C@H](CCC(=O)O)NC(=O)[C@H]([C@@H](C)CC)NC(=O)[C@@H](N)CSSC[C@@H](C(=O)O)NC(=O)[C@H](C(C)C)NC(=O)[C@H](Cc2c[nH]cn2)NC(=O)[C@H](CC(C)C)NC(=O)[C@H](CCCNC(=N)N)NC(=O)[C@H](Cc2c[nH]c3ccccc23)NC(=O)[C@H](CC(N)=O)NC(=O)CNC(=O)[C@H](CC(N)=O)NC(=O)[C@H](CC(=O)O)NC(=O)[C@H](CCC(N)=O)NC(=O)[C@H](CCSC)NC(=O)[C@H]([C@@H](C)CC)NC(=O)[C@H](CCCCN)NC(=O)[C@H](C(C)C)NC(=O)[C@H]([C@@H](C)O)NC(=O)[C@H](Cc2ccc(O)cc2)NC(=O)CNC(=O)[C@H](Cc2ccccc2)NC(=O)[C@H](C)NC(=O)[C@H](CCCNC(=N)N)NC(=O)[C@H](Cc2c[nH]c3ccccc23)NC1=O [AQW CS15989] (H-CIEQSFTTLFAAQTAAEIWRAFGYTVKIMQDNGNWRLHVC-OH; disulfide 1-40; N-terminus and C-terminus assumed)
EC50 for inhibition of viral replication in vitro (Virus Ca0409): 10 ng/mL
EC50 for inhibition of viral replication in vitro (Virus Ft. Monmouth): 10 ng/mL

CC[C@H](C)[C@@H]1NC(=O)[C@H](CCC(=O)O)NC(=O)[C@H](C)NC(=O)[C@H](C)NC(=O)[C@H]([C@@H](C)O)NC(=O)[C@H](CCC(N)=O)NC(=O)[C@@H]2CSSC[C@H](NC(=O)[C@H](CC(N)=O)NC(=O)CNC(=O)[C@H](CC(N)=O)NC(=O)[C@H](CC(=O)O)NC(=O)[C@H](C(C)C)NC(=O)[C@H](CCSC)NC(=O)[C@H]([C@@H](C)CC)NC(=O)[C@H](CCCCN)NC(=O)[C@H](C(C)C)NC(=O)[C@H]([C@@H](C)O)NC(=O)[C@H](Cc3ccc(O)cc3)NC(=O)CNC(=O)[C@H](Cc3ccccc3)NC(=O)[C@H](C)NC(=O)[C@H](CCCNC(=N)N)NC(=O)[C@H](Cc3c[nH]c4ccccc34)NC1=O)C(=O)N[C@@H](CCCNC(=N)N)C(=O)N[C@@H](CC(C)C)C(=O)N[C@@H](Cc1c[nH]cn1)C(=O)N[C@@H](C(C)C)C(=O)N[C@H](C(=O)O)CSSC[C@H](N)C(=O)N[C@@H]([C@@H](C)CC)C(=O)N[C@@H](CCC(=O)O)C(=O)N[C@@H](CCC(N)=O)C(=O)N[C@@H](CO)C(=O)N[C@@H](Cc1ccccc1)C(=O)N[C@@H]([C@@H](C)O)C(=O)N[C@@H]([C@@H](C)O)C(=O)N[C@@H](CC(C)C)C(=O)N[C@@H](Cc1ccccc1)C(=O)N[C@@H](C)C(=O)N2 [HB1.6928.2.3] (H-CIEQSFTTLFACQTAAEIWRAFGYTVKIMVDNGNCRLHVC-OH; disulfide 1-40, 12-35; N-terminus and C-terminus assumed)
loss of binding activity after high temperature exposure (biotinylated HA proteins): no detectable loss of binding
EC50 fold lower than FI6v3 and HB36.6 on a mass basis (PR8 influenza virus): more than 100 fold
EC50 versus FI6v3 and HB36.6 on a molar basis (PR8 influenza virus): comparable
EC50 fold lower than FI6v3 and HB36.6 on a mass basis (CA09 influenza virus): more than 100 fold
EC50 versus FI6v3 and HB36.6 on a molar basis (CA09 influenza virus): comparable
dose fold lower on a mass basis than the FI6v3 dose required for equivalent protection [1]: 100 fold
survival [1]: 100%
weight loss [1]: < 10%
protection ([1]; iv): little protection
changes in temperature [2]: no significant changes in temperature
clinical signs of disease [2]: minimal clinical signs of disease
weight loss [2]: no significant weight loss
EC50 for inhibition of viral replication in vitro (Virus Ft. Monmouth): 0.02 ng/mL
IC50 against flu virus strains Ca0409 and Ft. Monmout [3]: ~0.02 ng/mL (≈ 0.00441 nM)

TIEQSFTTLFAAQTAAEIWRAFGYTVKIMQDNGNWRLHVT [TAWQT CS15990]
EC50 for inhibition of viral replication in vitro (Virus Ca0409): 20 ng/mL
EC50 for inhibition of viral replication in vitro (Virus Ft. Monmouth): 2 ng/mL
